We go through 14 molecules from paper PMC6426682 (ACS chemical neuroscience, 2018).

Assay [1] addresses T1, CB1 receptor (Mus musculus, UniProt P47746). Briefly: [3H]SR141716 equilibrium radioligand binding. Particulars: for remaining activity at 32 µM: 1.5 h, read-out: %[3H]SR141716 Binding ± S.E.; for effect on [3H]SR141716 binding (in words): 1 nM [3H]SR141716.
The conditions of assay [2]: in vivo; cited from earlier work.
The target of assay [3] is T1, CB1 receptor. Briefly: [3H]CP55,940 saturation binding in presence of allosteric modulator. Conditions: Bmax of the radioligand at 10 μM of test compound; vehicle 1.56 ± 0.09.
For assay [4], the target named is T1, CB1 receptor. Briefly: [3H]CP55,940 equilibrium radioligand binding. Particulars: for [3H]CP55,940 Curve-fit top ± S.E.: mouse cerebellar membranes.
The next assay has as its system rats. Conditions: cited from earlier work.
The conditions of assay [5]: cited from earlier work.
In assay [6] the target is T1, CB1 receptor. Briefly: Agonist-stimulated [35S]GTP-γ-S binding assay in mouse cerebellar membranes. The assay is classed as biochemical.
For another assay, the target named is human CB1 receptor (Homo sapiens, UniProt P21554). Briefly: CB1 calcium mobilization assay. The assay is classed as cell-based. Conditions: for IC50: CB1 Calcium assay IC50, against EC80 (100 nM) of CP55,940 in stable human CB1-CHO-RD-HGA16 cells, mean ± SEM; for fold reduction in potency compared to 1, CB1 calcium assay: relative to 1. For orientation: Calcium assays in cells follow changes in intracellular calcium, usually with a dye or a luminescent sensor.
human CB1 receptor, sequence (P21554 whole entry): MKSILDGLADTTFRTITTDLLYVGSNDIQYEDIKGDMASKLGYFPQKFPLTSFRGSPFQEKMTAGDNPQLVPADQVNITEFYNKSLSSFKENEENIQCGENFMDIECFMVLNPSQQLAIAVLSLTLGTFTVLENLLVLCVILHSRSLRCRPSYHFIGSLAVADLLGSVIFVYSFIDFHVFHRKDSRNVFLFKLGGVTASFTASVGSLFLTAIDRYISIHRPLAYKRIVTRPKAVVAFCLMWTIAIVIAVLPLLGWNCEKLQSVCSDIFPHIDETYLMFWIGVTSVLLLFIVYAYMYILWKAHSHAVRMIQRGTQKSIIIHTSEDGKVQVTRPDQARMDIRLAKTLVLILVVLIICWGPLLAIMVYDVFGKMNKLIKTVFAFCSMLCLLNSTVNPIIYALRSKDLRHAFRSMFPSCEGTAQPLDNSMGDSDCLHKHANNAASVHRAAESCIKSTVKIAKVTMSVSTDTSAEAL

The target of assay [7] is uncoupled low affinity receptor (CB1). Conditions: read-out: Ki for the uncoupled low affinity receptor; cited from earlier work.

T1 sequence (P47746 whole entry): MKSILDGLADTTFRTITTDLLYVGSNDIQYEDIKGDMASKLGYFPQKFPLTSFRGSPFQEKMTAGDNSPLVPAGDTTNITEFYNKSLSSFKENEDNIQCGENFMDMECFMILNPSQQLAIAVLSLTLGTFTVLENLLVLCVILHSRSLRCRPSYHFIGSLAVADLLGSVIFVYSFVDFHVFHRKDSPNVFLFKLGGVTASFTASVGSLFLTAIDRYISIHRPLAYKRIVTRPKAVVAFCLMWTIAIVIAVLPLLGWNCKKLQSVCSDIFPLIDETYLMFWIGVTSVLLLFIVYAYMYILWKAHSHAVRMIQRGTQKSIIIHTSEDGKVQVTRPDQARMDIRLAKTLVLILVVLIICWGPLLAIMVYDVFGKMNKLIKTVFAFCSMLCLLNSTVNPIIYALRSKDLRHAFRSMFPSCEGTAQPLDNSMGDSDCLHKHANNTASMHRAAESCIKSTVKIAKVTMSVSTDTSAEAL

Broadly, the IC50 is the concentration needed to halve the response being measured. The term EC50 denotes the concentration that produces a half-maximal response. With `O=C(Nc1ccc(Cl)cc1)Nc1cccc(-c2cccc(N3CCCC3)n2)c1` [Compound 1, 1-(4-Chlorophenyl)-3-{3-[6-(pyrrolidin-1-yl)pyridin-2-yl]phenyl}urea, reference compound], at CB1 receptor [1], the IC50 is 12.3 µM and the remaining activity at 32 µM was 20.4 ± 3.05%. Also, the “food intake and body weight” value in [2] is “demonstrated efficacy in reducing food intake and body weight”. In addition, the “[3H]CP55,940 Bmax ± S.E.” value on CB1 receptor [3] amounted to 4.53 ± 0.29 pmol/mg. The molecule also showed a concentration giving a half-maximal response (EC50) on CB1 receptor [4] of 2.04 µM. On CB1 receptor [4] (1 nM [3H]CP55,940), the “[3H]CP55,940 maximum binding level” value is 256%. In addition, on CB1 receptor [4] (1.5 h, read-out: [3H]CP55,940 Curve-fit top ± S.E.), the Emax is 256 ± 5.59%. Also, the “prime-induced reinstatement of extinguished cocaine-seeking behavior” value in the assay on rats is given as “attenuated prime-induced reinstatement of extinguished cocaine-seeking behavior in rats”. In addition, in assay [5], the tetrahydrocannabinol-induced anti-nociception result was “attenuated tetrahydrocannabinol-induced anti-nociception”.
As to `O=C(Nc1ccc(Cl)cc1)Nc1cccc(-c2nccs2)c1` [Compound 18, 3‐(4‐Chlorophenyl)‐1‐[3‐(1,3‐thiazol‐2‐yl)phenyl]urea], on CB1 receptor [1], the half-maximal inhibitory concentration (IC50) was 16.6 µM and the remaining activity at 32 µM amounted to 37.7 ± 0.76%. This molecule gave a 50% effective concentration (EC50) on CB1 receptor [4] of 5.13 µM. Besides, the “[3H]CP55,940 Curve-fit top ± S.E.” value at CB1 receptor [4] (1 nM [3H]CP55,940) was found to be 134.2 ± 4.47.
Take `Cc1ccc(-c2cccc(NC(=O)Nc3ccc(Cl)cc3)c2)s1` [Compound 12, 3‐(4‐Chlorophenyl)‐1‐[3‐(5‐methylthiophen‐2‐yl)phenyl]urea]: on CB1 receptor [1], the 50% inhibitory concentration (IC50) was 22.9 µM, the “effect on [3H]SR141716 binding (in words)” value is “only exhibited a slight reduction in [^3H]SR141716 binding” and the remaining activity at 32 µM was found to be 86.9 ± 5.87%. The same molecule had an EC50 at CB1 receptor [4] of 13.2 µM. For the same molecule, the “[3H]CP55,940 Curve-fit top ± S.E.” value on CB1 receptor [4] (1 nM [3H]CP55,940) came out at 233.3 ± 20.53.
Regarding `O=C(Nc1ccc(Cl)cc1)Nc1cccc(-c2cncs2)c1` [Compound 17, 3‐(4‐Chlorophenyl)‐1‐[3‐(1,3‐thiazol‐5‐yl)phenyl]urea], at CB1 receptor [1], the 50% inhibitory concentration (IC50) is 2.95 µM and the remaining activity at 32 µM came to 50.6 ± 2.04%. In addition, at CB1 receptor [3], the “[3H]CP55,940 Bmax ± S.E.” value amounted to 3.57 ± 0.25 pmol/mg. At CB1 receptor [4], this molecule had a concentration giving a half-maximal response (EC50) of 6.46 µM. The “[3H]CP55,940 Curve-fit top ± S.E.” value at CB1 receptor [4] (1 nM [3H]CP55,940) is 181.2 ± 8.15.
Take `CC(C)(C)OC(=O)n1cccc1-c1cccc(NC(=O)Nc2ccc(Cl)cc2)c1` [Compound 15]: at CB1 receptor [1], the 50% inhibitory concentration (IC50) was 8.51 µM and the remaining activity at 32 µM was found to be 17.2 ± 4.12%. Besides, at CB1 receptor [4], the EC50 is 14.8 µM. Besides, at CB1 receptor [4] (1 nM [3H]CP55,940), the “effect on [3H]CP55,940 binding (in words)” value was “significantly decreased the binding of the radioligand” and the “[3H]CP55,940 Curve-fit top ± S.E.” value is recorded as 15.5 ± 24.12. Moreover, the IC50 at CB1 receptor [6] was 3.24 µM. Further, the half-inhibitory concentration (IC50) at human CB1 receptor is 3.44 ± 0.451 µM.
As to `O=C(Nc1ccc(Cl)cc1)Nc1cccc(-c2ncc[nH]2)c1` [Compound 19, 3‐(4‐Chlorophenyl)‐1‐[3‐(1H‐imidazol‐2‐yl)phenyl]urea], on CB1 receptor [1], the half-inhibitory concentration (IC50) is 123 µM and the remaining activity at 32 µM came out at 34.8 ± 8.94%. The molecule also had a concentration giving a half-maximal response (EC50) on CB1 receptor [4] of 10.2 µM. Also, on CB1 receptor [4] (1 nM [3H]CP55,940), the “[3H]CP55,940 maximum binding level” value stood at 355% and the “[3H]CP55,940 Curve-fit top ± S.E.” value is recorded as 355.7 ± 27.39. The “fold reduction in potency compared to 1, CB1 calcium assay” value (shortened to “fold reduction … CB1 calcium assay”) at human CB1 receptor is “around 16 fold”.
On to `Cc1cc(-c2cccc(NC(=O)Nc3ccc(Cl)cc3)c2)cs1` [Compound 11, 3‐(4‐Chlorophenyl)‐1‐[3‐(5‐methylthiophen‐3‐yl)phenyl]urea], for which, at CB1 receptor [1], the concentration for half-maximal inhibition (IC50) is 83.2 µM, the “effect on [3H]SR141716 binding (in words)” value was “only exhibited a slight reduction in [^3H]SR141716 binding” and the remaining activity at 32 µM was found to be 73.2 ± 5.77%. Besides, at CB1 receptor [3], the “[3H]CP55,940 Bmax ± S.E.” value is on record as 3.64 ± 0.17 pmol/mg. This molecule also had an EC50 on CB1 receptor [4] of 3.89 µM. Further, the “[3H]CP55,940 Curve-fit top ± S.E.” value at CB1 receptor [4] (1 nM [3H]CP55,940) is given as 226.0 ± 5.82. In addition, on CB1 receptor [6] (relative to the 3-thiophenyl analogue (9)), the “fold reduction in inhibitory potency on introduction of a methyl group, GTP-γ-S assay” value is listed as 5 fold.
Take `Cn1cccc1-c1cccc(NC(=O)Nc2ccc(Cl)cc2)c1` [Compound 14, 3‐(4‐Chlorophenyl)‐1‐[3‐(1‐methyl‐1H‐pyrrol‐2‐yl)phenyl]urea]: at CB1 receptor [1], the 50% inhibitory concentration (IC50) is 17.8 µM and the remaining activity at 32 µM was 41.4 ± 3.26%. At CB1 receptor [4], this molecule showed an EC50 of 5.62 µM. In addition, at CB1 receptor [4] (1 nM [3H]CP55,940), the “[3H]CP55,940 Curve-fit top ± S.E.” value is on record as 164.5 ± 8.61. Further, on human CB1 receptor, the IC50 was in the range of 0.165 to 0.169 µM and the “fold reduction … CB1 calcium assay” value was “about 3 fold”.
As to `O=C(Nc1ccc(Cl)cc1)Nc1cccc(-c2ccc[nH]2)c1` [Compound 13, 3‐(4‐Chlorophenyl)‐1‐[3‐(1H‐pyrrol‐2‐yl)phenyl]urea], at CB1 receptor [1], the half-maximal inhibitory concentration (IC50) was 14.1 µM and the remaining activity at 32 µM came out at 26.6 ± 5.68%. Moreover, the “[3H]CP55,940 Bmax ± S.E.” value on CB1 receptor [3] came to 5.87 ± 0.15 pmol/mg. This molecule also gave an EC50 on CB1 receptor [4] of 1.38 µM. Moreover, at CB1 receptor [4] (1 nM [3H]CP55,940), the “[3H]CP55,940 maximum binding level” value was 458% and the “[3H]CP55,940 Curve-fit top ± S.E.” value amounted to 458.3 ± 16.25. In addition, the “fold increase of [3H]CP55,940 binding level compared to 1” value on CB1 receptor [4] (relative to 1) was “more than 2 fold”. Besides, on human CB1 receptor, the IC50 lay in the range of 0.165 to 0.169 µM and the “fold reduction … CB1 calcium assay” value is listed as “about 3 fold”.
With `O=C(Nc1ccc(Cl)cc1)Nc1cccc(-c2ccsc2)c1` [Compound 9, 3‐(4‐Chlorophenyl)‐1‐[3‐(thiophen‐3‐yl)phenyl]urea], at CB1 receptor [1], the IC50 is 11.2 µM and the remaining activity at 32 µM came to 20.4 ± 2.13%. Further, on CB1 receptor [4], the midpoint of the response, the EC50, lay at 4.57 µM. The “[3H]CP55,940 Curve-fit top ± S.E.” value on CB1 receptor [4] (1 nM [3H]CP55,940) is 264.6 ± 9.81.
Take `O=C(Nc1ccc(Cl)cc1)Nc1cccc(-c2cccs2)c1` [Compound 10, 3‐(4‐Chlorophenyl)‐1‐[3‐(thiophen‐2‐yl)phenyl]urea]: at CB1 receptor [1], the IC50 is 28.8 µM and the remaining activity at 32 µM came to 45.54 ± 0.15%. Further, the EC50 on CB1 receptor [4] is 5.75 µM. For the same molecule, the “[3H]CP55,940 Curve-fit top ± S.E.” value at CB1 receptor [4] (1 nM [3H]CP55,940) was 199.8 ± 8.78.
Turning to `O=C(Nc1ccc(Cl)cc1)Nc1cccc(-c2cscn2)c1` [Compound 16, 3‐(4‐Chlorophenyl)‐1‐[3‐(1,3‐thiazol‐4‐yl)phenyl]urea], on CB1 receptor [1], the half-inhibitory concentration (IC50) is 25.7 µM and the remaining activity at 32 µM was determined as 44.3 ± 1.42%. The molecule further gave an EC50 on CB1 receptor [4] of 10.7 µM. For the same molecule, at CB1 receptor [4] (1 nM [3H]CP55,940), the “[3H]CP55,940 Curve-fit top ± S.E.” value is listed as 224.2 ± 15.85.
Broadly, the Ki is a measure of affinity in units of concentration, obtained from inhibition or displacement. Consider `CCCCCCC(C)(C)c1ccc([C@@H]2C[C@H](O)CC[C@H]2CCCO)c(O)c1` [CP55,940], for which the inhibitory constant (Ki) in assay [7] was around 0.1 µM.
As to `O=C(Nc1ccc(Cl)cc1)Nc1cccc(-c2ccoc2)c1` [Compound 8, 3‐(4‐Chlorophenyl)‐1‐[3‐(furan‐3‐yl)phenyl]urea], at CB1 receptor [1], the IC50 was 17.4 µM and the remaining activity at 32 µM turned out to be 34.9 ± 2.43%. In addition, on CB1 receptor [3], the “[3H]CP55,940 Bmax ± S.E.” value worked out at 3.22 ± 0.19 pmol/mg. Also, a half-maximal response at CB1 receptor [4] (EC50) required 7.41 µM. The “[3H]CP55,940 Curve-fit top ± S.E.” value on CB1 receptor [4] (1 nM [3H]CP55,940) was determined as 174.1 ± 8.86. In addition, the “fold less potent than 1 in the GTP-γ-S assay” value on CB1 receptor [6] (relative to 1) is on record as ~ 4 fold.
